Reference: patent publication US8455549B2, “Carbonylamino derivatives useful for the treatment of certain inflammatory disorders” (Aniona Aps, priority 0207, dated 2013)

System: DNBS-induced distal colitis
Assay: Inhibition of 2,4-Dinitrobenzenesulfonic Acid (DNBS)-induced distal colitis in rats
Type: in vivo, rat
Details: PO bid × 7, dose not specified
Experimental: Test substances A and B were evaluated for possible inhibition of 2,4-Dinitrobenzenesulfonic Acid (DNBS)-induced distal colitis in rats, which is a model of inflammatory bowel disease. The test compounds were soluble in a mixture of Cremophore EL, PEG400 and distilled water (10:10:80). Test substance was administered orally (PO) twice daily for 7 consecutive days. The dosing volume used was 10 ml/kg for PO. For test of Compound A groups of 10 Wistar derived male rats (BioLasco Taiwan) weighing 200±10 g were used. For test of Compound B groups of 5 Wistar derived male rats (BioLasco Taiwan) weighing 210±5 g were used. […] During the experiment, faecal occult blood and stool consistency were monitored daily. […] Also, the presence of colonic ulceration after removal and weighing of each colon (a macroscopic damage score) was recorded. […] The colon-to-body weight ratio was calculated according to the formula: (A) Colon-to-Body weight ratio (Colon weight/100 g B. W.) for each rat in respective treatment groups (vehicle blank, vehicle+DNBS, Test substance+DNBS and positive reference agent+DNBS) (B) The Net Increase of Colon weight/100 g B. W. For “vehicle+DNBS”: [(vehicle+DNBS)−(vehicle blank)] mean value of colon-to-body weight ratio For “test substance+DNBS”: [(test substance+DNBS)−(vehicle blank)] mean value of colon-to-body weight ratio (C) The percent decrease of colon weight/100 g B. Wt. […]

Row | Structure (SMILES) | stool consistency, occult faecal blood and macroscopic damage (adhesion and ulcers) in the colon
1 | NC(=O)C(c1ccccc1)(c1ccc(F)cc1)c1ccc(F)cc1 [Compound B, 2,2-Bis-(4-fluoro-phenyl)-2-phenyl-acetamide] | improved
2 | CC(C)C(C(N)=O)(c1ccc(F)cc1)c1ccc(F)cc1 [Compound A, 2,2-Bis-(4-fluoro-phenyl)-3-methyl-butyramide] | improved
